Test results from patent publication US11000033B2, “Ketone or oxime compound, and herbicide” (NISSAN CHEMICAL CORPORATION, priority 2014, dated 2021).

Key:
Assay type in all cases: in vivo
Leptochloa chinensis = test: Test Example 3: herbicidal effect by foliage application, Wagner pot (symbol D); conditions: application herbicide amount 320 g/ha
Summary of the method: (§1)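 Rating at 3 weeks post-spray, by defined criteria. Treatment: emulsion diluted with water to a predetermined amount, applied evenly to foliage of 14-day-old plants raised in alluvial soil flooded 0.1–0.5 cm deep at 25–30 °C, rice co-sown.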

Abutilon theophrasti = test: Test Example 4: herbicidal effect by soil treatment (symbol M); conditions: application herbicide amount 320 g/ha
Summary of the method: (§2)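 Seeds were sown in sterilized diluvial soil, covered with about 1.5 cm of soil, and the soil surface was sprayed with a water-diluted emulsion of the compound at a predetermined rate. Plants grew in a greenhouse at 25° C. to 30° C.; effects were scored visually 3 weeks after application.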

[1] = tested on: Echinochloa oryzacola Vasing.; test: Test Example 2: herbicidal activity, application during weed generation in submerged conditions (symbol A); conditions: Table 23; application herbicide amount 320 g/ha; grade 0-5 by criteria of Test Example 1
Summary of the method: (§3)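 Flooded-soil post-emergence test: emulsion of compound, water-diluted to target rate, applied to paddy water surface at 1–2 leaf stage of mixed-sown weeds (alluvial soil, 4 cm water, 25–30° C. greenhouse); visual rating 3 weeks after application.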

Cyperus difformis = test: Test Example 3: herbicidal effect by foliage application, Wagner pot (symbol E); conditions: application herbicide amount 320 g/ha
Summary of the method: as §1

Scirpus juncoides = test: Test Example 2: herbicidal activity, application during weed generation in submerged conditions (symbol B); conditions: Table 23; application herbicide amount 320 g/ha; grade 0-5 by criteria of Test Example 1
Summary of the method: as §3

wheat = test: Test Example 4: effect on crop by soil treatment (symbol e); conditions: application herbicide amount 320 g/ha
Summary of the method: (§4)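 Greenhouse culture at 25° C. to 30° C. followed sowing of seed in spots on sterilized diluvial soil with a soil cover close to 1.5 cm thick.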

soybean [2] = test: Test Example 4: effect on crop by soil treatment (symbol d); conditions: application herbicide amount 320 g/ha
Summary of the method: as §4

[3] = tested on: Echinochloa crus-galli var. crus-galli; test: Test Example 3: herbicidal effect by foliage application, Wagner pot (symbol H); conditions: application herbicide amount 320 g/ha
Summary of the method: as §1

rice plant = test: Test Example 5: effect on crop by foliage application, plastic box (symbol b); conditions: 320 g/ha, 3 weeks after application
Summary of the method: (§5)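 Diluvial soil, sterilized and boxed (21 × 13 × 7 cm), received spot-sown seed covered by about 1.5 cm soil; plants were then greenhouse-grown at 25–30° C.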

Stellaria media = test: Test Example 4: herbicidal effect by soil treatment (symbol P); conditions: application herbicide amount 320 g/ha
Summary of the method: as §2

transplanted rice plant = test: Test Example 1: effect on crop, application before weed generation in submerged conditions (symbol a); conditions: application herbicide amount 320 g/ha
Summary of the method: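 Alluvial soil pots flooded to 4 cm water, sown with Echinochloa oryzacola, Scirpus juncoides and Monochoria vaginalis, then transplanted with 2.5 leaf stage rice seedlings; pre-emergence application. Greenhouse 25° C. to 30° C.; scored 0–5 by herbicidal ratio 3 weeks after application.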

Monochoria vaginalis = test: Test Example 1: herbicidal activity, application before weed generation in submerged conditions (symbol C); conditions: application herbicide amount 320 g/ha
Summary of the method: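 Paddy pre-emergence test. Formulated emulsion, water-diluted to a predetermined rate, is applied to floodwater on sowing day; rice transplanted at 2.5 leaves. Effect read at 3 weeks on a 0–5 herbicidal-ratio scale.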

soybean [4] = test: Test Example 5: effect on crop by foliage application, plastic box (symbol d); conditions: 320 g/ha, 3 weeks after application
Summary of the method: as §5

corn [5] = test: Test Example 5: effect on crop by foliage application, plastic box (symbol c); conditions: 320 g/ha, 3 weeks after application
Summary of the method: as §5

beet = test: Test Example 5: effect on crop by foliage application, plastic box (symbol f); conditions: 320 g/ha, 3 weeks after application
Summary of the method: as §5

corn [6] = test: Test Example 4: effect on crop by soil treatment (symbol c); conditions: application herbicide amount 320 g/ha
Summary of the method: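 Steps: fill box with sterilized diluvial soil; sow seed spot-like; cover with ~1.5 cm soil; grow in greenhouse (25° C. to 30° C.).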

CON=C(C)CC1CC(O)=C(c2c(C)cc(-c3ccccc3)cc2OC)C1=O (stereo not shown) [6-099]
herbicidal effect on D (Leptochloa chinensis), grade 0-5 (Leptochloa chinensis): 5 (Herbicidal ratio of 90% or more (almost completely withered)) | Herbicidal effect grade, M: Abutilon theophrasti (Abutilon theophrasti): 3 (Herbicidal ratio of 40% or higher and lower than 70%) | Herbicidal effect grade, A: Echinochloa oryzacola Vasing. [1]: 5 (Herbicidal ratio of 90% or more (almost completely withered)) | herbicidal effect on E, grade 0-5 (Cyperus difformis): 5 (Herbicidal ratio of 90% or more (almost completely withered)) | Herbicidal effect grade, B: Scirpus juncoides (Scirpus juncoides): 5 (Herbicidal ratio of 90% or more (almost completely withered)) | Effect on crop grade, e: wheat (wheat): 5 (Herbicidal ratio of 90% or more (almost completely withered)) | Effect on crop grade, d: soybean (soybean [2]): 0 (Herbicidal ratio of 5% or lower (almost no effect)) | herbicidal effect on H (Echinochloa crus-galli var. crus-galli), grade 0-5 [3]: 5 (Herbicidal ratio of 90% or more (almost completely withered)) | b: directly sowed rice plant, effect on crop (criteria of Test Example 1) (rice plant): 5 (Herbicidal ratio of 90% or more (almost completely withered)) | Herbicidal effect grade, P: Stellaria media (Stellaria media): 4 (Herbicidal ratio of 70% or higher and lower than 90%) | Effect grade on crop, a: transplanted rice plant (transplanted rice plant): 5 (Herbicidal ratio of 90% or more (almost completely withered)) | Herbicidal effect grade, C: Monochoria vaginalis (Monochoria vaginalis): 5 (Herbicidal ratio of 90% or more (almost completely withered)) | d: soybean, effect on crop (criteria of Test Example 1) (soybean [4]): 4 (Herbicidal ratio of 70% or higher and lower than 90%) | c: corn, effect on crop (criteria of Test Example 1) (corn [5]): 5 (Herbicidal ratio of 90% or more (almost completely withered)) | f: beet, effect on crop (criteria of Test Example 1) (beet): 4 (Herbicidal ratio of 70% or higher and lower than 90%) | Effect on crop grade, c: corn (corn [6]): 5 (Herbicidal ratio of 90% or more (almost completely withered))
